These are literature values, as cited in US8546585B2, “Process for preparing eprosartan mesylate” (Zhejiang Huahai Pharmaceutical Co., Ltd., priority 2008, dated 2013).

Structures can show the parent of a compound that is named as a salt.

Assay in series [1]: not given
The source holds these as a separate data set.

For series [2] the following is noted: mild, moderate and severe hypertensive patients.
The mark [3] stands for this setting: patients with liver and kidney dysfunction, or fullness after administration.

For the compound `CCCCc1ncc(/C=C(\Cc2cccs2)C(=O)O)n1Cc1ccc(C(=O)O)cc1` [Eprosartan mesylate], for the setting “administrated orally”, the absorption result is listed as “rapidly absorbed”. Under setting [3], the “AUC (Area Under Curve) elevated by” value is given as “about 50%” and the “blood peak concentration elevated by” value is “about 50%”. Also, in series [1], the protein binding rate is on record as 98%. Besides, in series [2], the “lowering of systolic and diastolic pressures” value is “potent to lower systolic and diastolic pressures”; the safety and tolerability result was “safe and tolerable”.
